Measured values reported in US9260425B2 (Genetech, Inc., priority 2011, dated 2016).
pKi: −log10 of the molar value.

Each molecule was assayed against Pim-1 (Homo sapiens (Human), UniProt P11309) (assay: Pim kinase binding activity assay (Example 901), PIM-1 enzyme, Caliper microfluidic peptide phosphorylation). Settings: 20 pM PIM-1, 10 μM ATP, 1 μM FAM-peptide, 90 minutes at room temperature.
Type: biochemical
How it was run: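 PIM-1 at 20 pM phosphorylated 1 μM FAM-labelled Pim peptide with 10 μM ATP in HEPES pH 7.2, MgCl2, Tween 20 and DTT for 90 min at room temperature. EDTA stopped the reaction, and product and substrate were resolved by microfluidic electrophoresis (ex 488/em 530 nm). Ki was derived from substrate conversion.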

Pim-1, sequence (P11309 whole entry): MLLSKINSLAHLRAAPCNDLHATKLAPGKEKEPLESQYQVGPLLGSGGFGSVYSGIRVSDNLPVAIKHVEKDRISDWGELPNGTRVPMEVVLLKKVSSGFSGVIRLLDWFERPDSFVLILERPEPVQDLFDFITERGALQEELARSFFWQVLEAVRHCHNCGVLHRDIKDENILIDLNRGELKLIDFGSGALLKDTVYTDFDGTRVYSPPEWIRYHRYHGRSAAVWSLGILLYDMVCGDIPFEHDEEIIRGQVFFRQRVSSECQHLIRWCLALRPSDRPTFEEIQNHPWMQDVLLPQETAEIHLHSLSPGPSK

pKi	SMILES
10.34	CCn1cc(-c2cc3c(-c4cccc(N5CCN[C@H](C)C5)n4)n[nH]c3cn2)cn1 [Example 397, (R)-5-(1-ethyl-1H-pyrazol-4-yl)-3-(6-(3-methylpiperazin-1-yl)pyridin-2-yl)-1H-pyrazolo[3,4-c]pyridine]
7.41	N#Cc1cc2c(-c3cccc(N4CCC[C@@H](N)C4)n3)n[nH]c2cn1 [Example 398, (R)-3-(6-(3-aminopiperidin-1-yl)pyridin-2-yl)-1H-pyrazolo[3,4-c]pyridine-5-carbonitrile]
7.65	N#Cc1cc2c(-c3cccc(N4CCC[C@H](N)C4)n3)n[nH]c2cn1 [Example 399, (S)-3-(6-(3-aminopiperidin-1-yl)pyridin-2-yl)-1H-pyrazolo[3,4-c]pyridine-5-carbonitrile]
7.29	N#Cc1cc2c(-c3cccc(N4CCNCC4)n3)n[nH]c2cn1 [Example 400, 3-(6-(piperazin-1-yl)pyridin-2-yl)-1H-pyrazolo[3,4-c]pyridine-5-carbonitrile]
8.48	c1cc(-c2n[nH]c3cnc(N4CCOCC4)cc23)nc(N2CCNCC2)c1 [Example 401, 4-(3-(6-(piperazin-1-yl)pyridin-2-yl)-1H-pyrazolo[3,4-c]pyridin-5-yl)morpholine]
10.15	CN1CCN(c2nc(-c3n[nH]c4cnc(-c5cnn(C)c5)cc34)ccc2Br)CC1 [Example 402, 3-(5-bromo-6-(4-methylpiperazin-1-yl)pyridin-2-yl)-5-(1-methyl-1H-pyrazol-4-yl)-1H-pyrazolo[3,4-c]pyridine]
10.40	CCn1cc(-c2cc3c(-c4ccc(Br)c(N5CCC[C@H](N)C5)n4)n[nH]c3cn2)cn1 [Example 403, (S)-1-(3-bromo-6-(5-(1-ethyl-1H-pyrazol-4-yl)-1H-pyrazolo[3,4-c]pyridin-3-yl)pyridin-2-yl)piperidin-3-amine]
10.05	CCn1cc(-c2cc3c(-c4ccc(Br)c(N5CCNCC5)n4)n[nH]c3cn2)cn1 [Example 404, 3-(5-bromo-6-(piperazin-1-yl)pyridin-2-yl)-5-(1-ethyl-1H-pyrazol-4-yl)-1H-pyrazolo[3,4-c]pyridine]
9.28	Cn1cc(-c2cc3c(-c4ccc(Br)c(N5CC(N6CCNC(=O)C6)C5)n4)n[nH]c3cn2)cn1 [Example 405, 4-(1-(3-bromo-6-(5-(1-methyl-1H-pyrazol-4-yl)-1H-pyrazolo[3,4-c]pyridin-3-yl)pyridin-2-yl)azetidin-3-yl)piperazin-2-one]
9.59	Cn1cc(-c2cc3c(-c4ccc(Br)c(N5CCN(CCS(C)(=O)=O)C(C)(C)C5)n4)n[nH]c3cn2)cn1 [Example 406, 3-(5-bromo-6-(3,3-dimethyl-4-(2-(methylsulfonyl)ethyl)piperazin-1-yl)pyridin-2-yl)-5-(1-methyl-1H-pyrazol-4-yl)-1H-pyrazolo[3,4-c]pyridine]
10.70	CCn1cc(-c2cc3c(-c4cccc(N5CCCNCC5)n4)n[nH]c3cn2)cn1 [Example 409, 3-(6-(1,4-diazepan-1-yl)pyridin-2-yl)-5-(1-ethyl-1H-pyrazol-4-yl)-1H-pyrazolo[3,4-c]pyridine]
10.41	CCn1cc(-c2cc3c(-c4cccc(N5CCNC[C@H](O)C5)n4)n[nH]c3cn2)cn1 [Example 410, (S)-1-(6-(5-(1-ethyl-1H-pyrazol-4-yl)-1H-pyrazolo[3,4-c]pyridin-3-yl)pyridin-2-yl)-1,4-diazepan-6-ol]
10.85	CCn1cc(-c2cc3c(-c4cccc(N5CCNC[C@@H](O)C5)n4)n[nH]c3cn2)cn1 [Example 411, (R)-1-(6-(5-(1-ethyl-1H-pyrazol-4-yl)-1H-pyrazolo[3,4-c]pyridin-3-yl)pyridin-2-yl)-1,4-diazepan-6-ol]
10.44	C=Cc1ccc(-c2n[nH]c3cnc(-c4cnn(C)c4)cc23)nc1N1CCC[C@H](N)C1 [Example 412, (S)-1-(6-(5-(1-methyl-1H-pyrazol-4-yl)-1H-pyrazolo[3,4-c]pyridin-3-yl)-3-vinylpyridin-2-yl)piperidin-3-amine]
8.99	Cc1ccc(-c2n[nH]c3cnc(-c4cnn(C)c4)cc23)nc1N1CC(N2CCS(=O)(=O)CC2)C1 [Example 413, 4-(1-(3-methyl-6-(5-(1-methyl-1H-pyrazol-4-yl)-1H-pyrazolo[3,4-c]pyridin-3-yl)pyridin-2-yl)azetidin-3-yl)-1,1-dioxo thiomorpholine]
10.55	C=C(C)c1ccc(-c2n[nH]c3cnc(-c4cnn(C)c4)cc23)nc1N1CCC[C@H](N)C1 [Example 414, (S)-1-(6-(5-(1-methyl-1H-pyrazol-4-yl)-1H-pyrazolo[3,4-c]pyridin-3-yl)-3-(prop-1-en-2-yl)pyridin-2-yl)piperidin-3-amine]
6.98	O=C1OCCN1c1cc2c(-c3cccc(N4CCNCC4)n3)n[nH]c2cn1 [Example 415, 3-(3-(6-(piperazin-1-yl)pyridin-2-yl)-1H-pyrazolo[3,4-c]pyridin-5-yl)oxazolidin-2-one]

pKi	SMILES
7.95	c1cc(-c2n[nH]c3cnc(-c4cnn(CC5COC5)c4)cc23)nc(N2CCNCC2)c1 [Example 416, 5-(1-(oxetan-3-ylmethyl)-1H-pyrazol-4-yl)-3-(6-(piperazin-l-yl)pyridin-2-yl)-1H-pyrazolo[3,4-c]pyridine]
9.96	Cc1ccc(-c2n[nH]c3cnc(-c4cnn(C)c4)cc23)nc1N1CCC[C@@H](O)C1 [Example 418, (R)-1-(3-methyl-6-(5-(1-methyl-1H-pyrazol-4-yl)-1H-pyrazolo[3,4-c]pyridin-3-yl)pyridin-2-yl)piperidin-3-ol]
9.80	Cc1ccc(-c2n[nH]c3cnc(-c4cnn(C)c4)cc23)nc1N1CCOCC1 [Example 419, 4-(3-methyl-6-(5-(1-methyl-1H-pyrazol-4-yl)-1H-pyrazolo[3,4-c]pyridin-3-yl)pyridin-2-yl)morpholine]
9.43	Cn1cc(-c2cc3c(-c4cccc(N5CCOCC5)n4)n[nH]c3cn2)cn1 [Example 420, 4-(6-(5-(1-methyl-1H-pyrazol-4-yl)-1H-pyrazolo[3,4-c]pyridin-3-yl)pyridin-2-yl)morpholine]
9.98	FC1(c2cccc(-c3n[nH]c4cnc(-c5cccnc5)cc34)n2)CCNCC1 [Example 421, 3-(6-(4-fluoropiperidin-4-yl)pyridin-2-yl)-5-(pyridin-3-yl)-1H-pyrazolo[3,4-c]pyridine]
6.52	OC1(c2cccc(-c3n[nH]c4cnc(-c5cccnc5)cc34)n2)CCNCC1 [Example 422, 4-(6-(5-(pyridin-3-yl)-1H-pyrazolo[3,4-c]pyridin-3-yl)pyridin-2-yl)piperidin-4-ol]
9.89	Cn1cc(-c2cc3c(-c4cccc(N5CCC[C@](C)(O)C5)n4)n[nH]c3cn2)cn1 [Example 423, (S)-3-methyl-1-(6-(5-(1-methyl-1H-pyrazol-4-yl)-1H-pyrazolo[3,4-c]pyridin-3-yl)pyridin-2-yl)piperidin-3-ol]
10.14	Cn1cc(-c2cc3c(-c4cccc(N5CCC[C@@](C)(O)C5)n4)n[nH]c3cn2)cn1 [Example 424, (R)-3-methyl-1-(6-(5-(1-methyl-1H-pyrazol-4-yl)-1H-pyrazolo[3,4-c]pyridin-3-yl)pyridin-2-yl)piperidin-3-ol]
9.21	Cc1ccc(-c2n[nH]c3cnc(-c4cnn(C)c4)cc23)nc1N1CC(N2CCNC(=O)C2)C1 [Example 425, 4-(1-(3-methyl-6-(5-(1-methyl-1H-pyrazol-4-yl)-1H-pyrazolo[3,4-c]pyridin-3-yl)pyridin-2-yl)azetidin-3-yl)piperazin-2-one]
9.34	Cc1ccc(-c2n[nH]c3cnc(-c4cccnc4)cc23)nc1N1CC(N2CCNC(=O)C2)C1 [Example 426, 4-(1-(3-methyl-6-(5-(pyridin-3-yl)-1H-pyrazolo[3,4-c]pyridin-3-yl)pyridin-2-yl)azetidin-3-yl)piperazin-2-one]
10.80	C=C(C)c1ccc(-c2n[nH]c3cnc(-c4cnn(CC)c4)cc23)nc1N1CCC[C@H](N)C1 [Example 427, (S)-1-(6-(5-(1-ethyl-1H-pyrazol-4-yl)-1H-pyrazolo[3,4-c]pyridin-3-yl)-3-(prop-1-en-2-yl)pyridin-2-yl)piperidin-3-amine]
9.95	Cc1ccc(-c2n[nH]c3cnc(-c4cnn(C)c4)cc23)nc1N1CCN(CCS(C)(=O)=O)C(C)(C)C1 [Example 428, 3-(6-(3,3-dimethyl-4-(2-(methylsulfonyl)ethyl)piperazin-1-yl)-5-methylpyridin-2-yl)-5-(1-methyl-1H-pyrazol-4-yl)-1H-pyrazolo[3,4-c]pyridine]
10.66	CCc1ccc(-c2n[nH]c3cnc(-c4cnn(C)c4)cc23)nc1N1CCC[C@H](N)C1 [Example 429, (S)-1-(3-ethyl-6-(5-(1-methyl-1H-pyrazol-4-yl)-1H-pyrazolo[3,4-c]pyridin-3-yl)pyridin-2-yl)piperidin-3-amine]
10.57	CCn1cc(-c2cc3c(-c4ccc(C)c(N5CCC[C@H](N)C5)n4)n[nH]c3cn2)cn1 [Example 430, (S)-1-(6-(5-(1-ethyl-1H-pyrazol-4-yl)-1H-pyrazolo[3,4-c]pyridin-3-yl)-3-methylpyridin-2-yl)piperidin-3-amine]
10.64	C=Cc1ccc(-c2n[nH]c3cnc(-c4cnn(CC)c4)cc23)nc1N1CCC[C@H](N)C1 [Example 431, (S)-1-(6-(5-(1-ethyl-1H-pyrazol-4-yl)-1H-pyrazolo[3,4-c]pyridin-3-yl)-3-vinylpyridin-2-yl)piperidin-3-amine]
10.26	CCn1cc(-c2cc3c(-c4ccc(C)c(N5CCNCC5)n4)n[nH]c3cn2)cn1 [Example 432, 5-(1-ethyl-1H-pyrazol-4-yl)-3-(5-methyl-6-(piperazin-1-yl)pyridin-2-yl)-1H-pyrazolo[3,4-c]pyridine]
10.89	Cc1ccc(-c2n[nH]c3cnc(-c4cnn(C)c4)cc23)nc1N1CCC[C@H](N)C1 [Example 433, (S)-1-(3-methyl-6-(5-(1-methyl-1H-pyrazol-4-yl)-1H-pyrazolo[3,4-c]pyridin-3-yl)pyridin-2-yl)piperidin-3-amine]
